Reference: article PMC9232501, “Results of the phase I CCTG IND.231 trial of CX-5461 in patients with advanced solid tumors enriched for DNA-repair deficiencies” (Nature Communications, 2022)
Where “and” joins values, the source holds several entries; their conditions need not be identical. Equal values may be shown once.

Tests used:
HCT116 cells [1] = experiment: HCT116 cytotoxicity (WST-1 assay) with and without UVA radiation; format: cell-based, Human; details: for potentiation of UVA-induced cytotoxicity: UV 5 mJ/cm^2 and 125 mJ/cm^2; for WST-1 raw signal (Figure 5e) / WST-1 raw signal (Figure 5c): replicates
Protocol: (§1) Fig. 5 Comparison of G4 ligand photosensitization. […] Vertical axis, fractional survival, horizontal axis log10 drug concentration (M) (f) Representative images of CPD immunofluorescent staining under UV and drug treatment conditions for U2OS cells, quantified from biological duplicates in (g) (h) Scale bar = 100um. U2OS cells were treated with drug or vehicle control, then immediately irradiated with UVA 125 mJ/cm^2; and fixed 1 h later for immunofluorescence staining with CPD antibody. g Distribution of mean intensity of CPD level per cell (total n = in labels), with two biological repeats per condition. Vertical axis, mean CPD intensity per cell, horizontal axis, conditions (h) WT or KO XPA HAP1 cells assayed for cytotoxicity. Vertical axis, fractional survival (WST-1 assay). The horizontal axis, log10 drug concentration (M). Error bars = standard deviation of the mean. Three biological repeats per condition.
(§2) Human epidermal keratinocytes (HEKa) cells were sourced from Thermo Fisher Scientific, and were grown in EpiLife™ Medium with HKGS. HAP WT and XPA knockout cell lines (Horizon Discovery) were cultured in IMDM, 10% FCS. Human HCT116 cells, U2OS cells (ATCC) were grown in McCoy’s 5 A medium with 10% FBS and L-glutamine. All cell lines are mycoplasma free and have been authenticated by STR or SNP profiling. CX-5461 was provided by Senhwa Biosciences, Inc. PDS is from Sigma-Aldrich, BRACO-19 from Alfa Chemistry, PhENDC3 is from Sigma-Aldrich, γ -H2AX antibody from Abcam (1:1000 for IF) and CPD antibody (1:1500) from Cosmo Bio Ltd. (Catalog number: CAC-NM-DAD-001). The WST-1 assay was performed as previously described, γ H2AX foci staining was performed as previously described. Immunofluorescence staining of CPD was performed according to the protocol from the manufacturer (Cosmo Bio Ltd).

U2OS cells = experiment: CPD (cyclobutane pyrimidine dimer) immunofluorescence after UVA 125 mJ/cm^2; format: cell-based, Human; details: 1 h compound exposure
Protocol: as §1
Human epidermal keratinocytes (HEKa) cells were sourced from Thermo Fisher Scientific, and were grown in EpiLife™ Medium with HKGS. HAP WT and XPA knockout cell lines (Horizon Discovery) were cultured in IMDM, 10% FCS. Human HCT116 cells, U2OS cells (ATCC) were grown in McCoy’s 5 A medium with 10% FBS and L-glutamine. All cell lines are mycoplasma free and have been authenticated by STR or SNP profiling. […]

[2] = test system: γ-H2AX (double-stranded DNA breaks); experiment: γ-H2AX immunofluorescent staining with and without UVA radiation; format: cell-based; details: CX5461 10^-8M, 5x10-8M; PDS 20 x 10^-6M
Protocol: as §2
(§3) Supplementary Figures and Tables
(§4) Supplementary Figure 1. UVA radiation increased double-stranded DNA breaks and ROS.
(§5) Representative pictures of g -H2AX immunofluorescent staining with and without UVA radiation, for […]
condition, quantified in (b) Quantile and mean intensity of g-H2AX level per cell, vertical axis. UV and drug factor conditions, horizontal axis. […] Number of cells as in Figure 5 g (c) The ratio of ROS level measured after UVA irradiation versus before UVA irradiation was calculated. […]

HCT116 cells [3] = experiment: ROS measurement with H2DCFDA before/after UVA 125 mJ/cm^2; format: cell-based, Human; details: CX-5461 0.1 μM or PDS 10 μM for 1 h
Protocol: ROS measurement with H2DCFDA: HCT116 cells were treated with vehicle, CX-5461 0.1 μM or PDS 10 μM for 1 h, then were added with H2DCFDA for 45 min before initial fluorescence measurement. Cells were then irradiated with UVA 125 mJ/cm^2, and immediately sent for a second fluorescent measurement. The ratio of the second and the first fluorescent measurement was calculated as the level of ROS induced by UVA. Assays were performed in the 1-hour time frame within which UV damage manifests, in contrast to G4 ligand-induced damage which takes 3–4 h to be measurable.
as §3, §4, §5
condition, quantified in (b) Quantile and mean intensity of g-H2AX level per cell, vertical axis. UV and drug factor conditions, horizontal axis. Experiments were repeated two times (biological duplicates) and similar results were obtained. Number of cells as in Figure 5 g (c) The ratio of ROS level measured after UVA irradiation versus before UVA irradiation was calculated. Biological triplicates. The horizontal bar = median. ***P<0.0001, Welch’s t-test; n=8
(1 picture or pasted object on this page, not shown here)

[4] = test system: BRCA2 and BRCA1-deficient tumor models; details: cited from earlier work

SMILES: C[n+]1cc(NC(=O)c2ccc3ccc4ccc(C(=O)Nc5cc6ccccc6[n+](C)c5)nc4c3n2)cc2ccccc21 [PhenDC3]
- potentiation of UVA-induced cytotoxicity (HCT116 cells [1]): not
- WST-1 raw signal (Figure 5e) (HCT116 cells [1]; conc 1.47e-6, 5mJ/cm2 UV): 2.5247 and 1.9665 and 1.5331
- WST-1 raw signal (Figure 5e) (HCT116 cells [1]; conc 1.47e-6, 125mJ/cm2 UV): 2.2675 and 1.9844 and 1.1454
- WST-1 raw signal (Figure 5e) (HCT116 cells [1]; conc 1.47e-6, no UV): 1.3654 and 1.4935 and 1.7286
- WST-1 raw signal (Figure 5e) (HCT116 cells [1]; conc 2.94e-6, 5mJ/cm2 UV): 2.08 and 2.2029 and 1.6368
- WST-1 raw signal (Figure 5e) (HCT116 cells [1]; conc 2.94e-6, 125mJ/cm2 UV): 2.4823 and 2.523 and 1.7852
- WST-1 raw signal (Figure 5e) (HCT116 cells [1]; conc 2.94e-6, no UV): 1.5405 and 2.117 and 2.002
- WST-1 raw signal (Figure 5e) (HCT116 cells [1]; conc 5.88e-6, 5mJ/cm2 UV): 2.4037 and 2.2391 and 1.6885
- WST-1 raw signal (Figure 5e) (HCT116 cells [1]; conc 5.88e-6, 125mJ/cm2 UV): 2.7023 and 2.4336 and 1.5283
- WST-1 raw signal (Figure 5e) (HCT116 cells [1]; conc 5.88e-6, no UV): 1.7 and 1.9567 and 2.1724
- WST-1 raw signal (Figure 5e) (HCT116 cells [1]; conc 1.18e-5, 5mJ/cm2 UV): 2.1812 and 1.9738 and 1.7421
- WST-1 raw signal (Figure 5e) (HCT116 cells [1]; conc 1.18e-5, 125mJ/cm2 UV): 2.7227 and 2.5018 and 2.3037
- WST-1 raw signal (Figure 5e) (HCT116 cells [1]; conc 1.18e-5, no UV): 1.7648 and 1.8678 and 1.9824
- WST-1 raw signal (Figure 5e) (HCT116 cells [1]; conc 2.35e-5, 5mJ/cm2 UV): 0.565 and 0.559 and 0.471
- WST-1 raw signal (Figure 5e) (HCT116 cells [1]; conc 2.35e-5, 125mJ/cm2 UV): 0.7287 and 0.5914 and 0.574
- WST-1 raw signal (Figure 5e) (HCT116 cells [1]; conc 2.35e-5, no UV): 0.8347 and 0.741 and 0.6679
- WST-1 raw signal (Figure 5e) (HCT116 cells [1]; conc 4.7e-5, 5mJ/cm2 UV): 0.2348 and 0.2033 and 0.2076
- WST-1 raw signal (Figure 5e) (HCT116 cells [1]; conc 4.7e-5, 125mJ/cm2 UV): 0.1706 and 0.1911 and 0.2089
- WST-1 raw signal (Figure 5e) (HCT116 cells [1]; conc 4.7e-5, no UV): 0.2669 and 0.2647 and 0.2402
- WST-1 raw signal (Figure 5e) (HCT116 cells [1]; conc 9.4e-5, 5mJ/cm2 UV): 0.1394 and 0.1367 and 0.1266
- WST-1 raw signal (Figure 5e) (HCT116 cells [1]; conc 9.4e-5, 125mJ/cm2 UV): 0.1442 and 0.1281 and 0.1307
- WST-1 raw signal (Figure 5e) (HCT116 cells [1]; conc 9.4e-5, no UV): 0.1612 and 0.1272 and 0.1365
- WST-1 raw signal (Figure 5e) (HCT116 cells [1]; conc 1.84E-07, 5mJ/cm2 UV): 1.7037 and 1.2125 and 1.5201
- WST-1 raw signal (Figure 5e) (HCT116 cells [1]; conc 1.84E-07, 125mJ/cm2 UV): 1.8011 and 1.8559 and 1.4258
- WST-1 raw signal (Figure 5e) (HCT116 cells [1]; conc 1.84E-07, no UV): 1.321 and 1.2585 and 1.2601
- WST-1 raw signal (Figure 5e) (HCT116 cells [1]; conc 3.67E-07, 5mJ/cm2 UV): 1.8869 and 1.5993 and 1.6043
- WST-1 raw signal (Figure 5e) (HCT116 cells [1]; conc 3.67E-07, 125mJ/cm2 UV): 2.4917 and 1.8093 and 1.3054
- WST-1 raw signal (Figure 5e) (HCT116 cells [1]; conc 3.67E-07, no UV): 1.2806 and 1.3851 and 1.3161
- WST-1 raw signal (Figure 5e) (HCT116 cells [1]; conc 7.34E-07, 5mJ/cm2 UV): 1.9796 and 1.8361 and 1.8217
- WST-1 raw signal (Figure 5e) (HCT116 cells [1]; conc 7.34E-07, 125mJ/cm2 UV): 2.3975 and 1.9653 and 1.3571
- WST-1 raw signal (Figure 5e) (HCT116 cells [1]; conc 7.34E-07, no UV): 1.5573 and 1.2554 and 1.5011

SMILES: NCCOc1cc(C(=O)Nc2cc(OCCN)c3ccccc3n2)nc(C(=O)Nc2cc(OCCN)c3ccccc3n2)c1 [PDS, pyridostatin]
- potentiation of UVA-induced cytotoxicity (HCT116 cells [1]): not
- WST-1 raw signal (Figure 5c) (HCT116 cells [1]; conc 1.56e-6, 5mJ/cm2 UV): 3.2786 and 3.1337
- WST-1 raw signal (Figure 5c) (HCT116 cells [1]; conc 1.56e-6, 125 mJ/cm2 UV): 2.9405 and 3.1793
- WST-1 raw signal (Figure 5c) (HCT116 cells [1]; conc 1.56e-6, no UV): 3.373 and 3.3554
- WST-1 raw signal (Figure 5c) (HCT116 cells [1]; conc 3.13e-6, 5mJ/cm2 UV): 2.8932 and 3.2752
- WST-1 raw signal (Figure 5c) (HCT116 cells [1]; conc 3.13e-6, 125 mJ/cm2 UV): 3.2783 and 2.5154
- WST-1 raw signal (Figure 5c) (HCT116 cells [1]; conc 3.13e-6, no UV): 3.1639 and 3.0204
- WST-1 raw signal (Figure 5c) (HCT116 cells [1]; conc 6.25e-6, 5mJ/cm2 UV): 3.1968 and 2.1952
- WST-1 raw signal (Figure 5c) (HCT116 cells [1]; conc 6.25e-6, 125 mJ/cm2 UV): 2.1994 and 1.9427
- WST-1 raw signal (Figure 5c) (HCT116 cells [1]; conc 6.25e-6, no UV): 2.8791 and 2.2497
- WST-1 raw signal (Figure 5c) (HCT116 cells [1]; conc 1.25e-5, 5mJ/cm2 UV): 0.8793 and 1.0754
- WST-1 raw signal (Figure 5c) (HCT116 cells [1]; conc 1.25e-5, 125 mJ/cm2 UV): 1.8196 and 1.0192
- WST-1 raw signal (Figure 5c) (HCT116 cells [1]; conc 1.25e-5, no UV): 1.2465 and 0.8301
- WST-1 raw signal (Figure 5c) (HCT116 cells [1]; conc 2.5e-5, 5mJ/cm2 UV): 0.2188 and 0.2466
- WST-1 raw signal (Figure 5c) (HCT116 cells [1]; conc 2.5e-5, 125 mJ/cm2 UV): 0.4428 and 0.3571
- WST-1 raw signal (Figure 5c) (HCT116 cells [1]; conc 2.5e-5, no UV): 0.23 and 0.2464
- WST-1 raw signal (Figure 5c) (HCT116 cells [1]; conc 5e-5, 5mJ/cm2 UV): 0.1582 and 0.148
- WST-1 raw signal (Figure 5c) (HCT116 cells [1]; conc 5e-5, 125 mJ/cm2 UV): 0.1729 and 0.1634
- WST-1 raw signal (Figure 5c) (HCT116 cells [1]; conc 5e-5, no UV): 0.1562 and 0.1551
- WST-1 raw signal (Figure 5c) (HCT116 cells [1]; conc 1.95E-07, 5mJ/cm2 UV): 3.319 and 3.3471
- WST-1 raw signal (Figure 5c) (HCT116 cells [1]; conc 1.95E-07, 125 mJ/cm2 UV): 2.9662 and 3.2767
- WST-1 raw signal (Figure 5c) (HCT116 cells [1]; conc 1.95E-07, no UV): 3.3384 and 3.3351
- WST-1 raw signal (Figure 5c) (HCT116 cells [1]; conc 3.91E-07, 5mJ/cm2 UV): 3.2173 and 2.6279
- WST-1 raw signal (Figure 5c) (HCT116 cells [1]; conc 3.91E-07, 125 mJ/cm2 UV): 3.2982
- WST-1 raw signal (Figure 5c) (HCT116 cells [1]; conc 3.91E-07, no UV): 3.3319 and 2.4545
- WST-1 raw signal (Figure 5c) (HCT116 cells [1]; conc 7.81E-07, 5mJ/cm2 UV): 3.0666 and 2.7778
- WST-1 raw signal (Figure 5c) (HCT116 cells [1]; conc 7.81E-07, 125 mJ/cm2 UV): 3.2287 and 3.2519
- WST-1 raw signal (Figure 5c) (HCT116 cells [1]; conc 7.81E-07, no UV): 3.286 and 3.3592
- WST-1 raw signal (Figure 5c) (HCT116 cells [1]; conc 9.77E-08, 5mJ/cm2 UV): 3.3085 and 3.2577
- WST-1 raw signal (Figure 5c) (HCT116 cells [1]; conc 9.77E-08, 125 mJ/cm2 UV): 3.2825 and 3.2983
- WST-1 raw signal (Figure 5c) (HCT116 cells [1]; conc 9.77E-08, no UV): 3.2977 and 3.3288
- potentiation of CPD formation by UVA (U2OS cells): not
- DNA damage (γ-H2AX) in the presence of UVA [2]: not
- ROS in the presence of UVA (ratio after/before UVA) (HCT116 cells [3]): not
- synthetic lethality with loss of HR repair [4]: synthetic lethal
